Test results reported in patent publication US20250049774A1, “Crystalline Forms of Apalutamide” (Apotex Inc., priority 2021, published 2025).

Assays:
[1] = Intrinsic dissolution rate (IDR), Wood's apparatus; format: physicochemical; conditions: 900 ml distilled water, 37° C., 50 rpm; approx. 200 mg compressed at 1.5 metric tons for 1 minute
Experimental: Intrinsic dissolution rate (IDR) measurements were performed using a Wood's apparatus. Samples were prepared by compressing an amount (approximately 200 mg) of sample at 1.5 metric tons for 1 minute. A dissolution medium consisting of 900 ml distilled water maintained at 37° C., and rotation speed of 50 rpm, was used for each experiment.

[2] = drug substance, as described in CHMP Assessment Report; cited from earlier work
[3] = drug substance, as described in CHMP Assessment Report; cited from earlier work; remark: listed apart in the source

Row | SMILES | Intrinsic Dissolution Rate [1] | Biopharmaceutics Classification System (BCS) class [2] | aqueous solubility [2] | permeability [3]
1 | CNC(=O)c1ccc(N2C(=S)N(c3cnc(C#N)c(C(F)(F)F)c3)C(=O)C23CCC3)cc1F [Apalutamide Amorphous Form] | 0.0085 mg min^−1 cm^−2 |  |  | 
2 | CNC(=O)c1ccc(N2C(=S)N(c3cnc(C#N)c(C(F)(F)F)c3)C(=O)C23CCC3)cc1F [apalutamide, (4-[7-(6-cyano-5-trifluoromethylpyridin-3-yl)-8-oxo-6-thioxo-5,7-diazaspiro[3.4]oct-5-yl]-2-fluoro-N-methylbenzamide)] |  | Class II | low, pH-independent | high
3 | CNC(=O)c1ccc(N2C(=S)N(c3cnc(C#N)c(C(F)(F)F)c3)C(=O)C23CCC3)cc1F [Apalutamide Form B] | 0.0065 mg min^−1 cm^−2 |  |  | 
